Test results reported in ChEMBL document CHEMBL1201862, “PubChem BioAssay data set” (2004).
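A five-concentration, 48-hour dose response in 96-well plates underlies each endpoint, interpolated linearly between surrounding concentrations. GI50 is the concentration that inhibits growth by half.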 Calls of active or inactive are those of the source. Rule as the data show it: active = GI50 up to about 1.1 µM and inactive = higher. Non-standard residues stand in square brackets, D forms with d. Residues, ends and D or L forms follow the SMILES beside them. ξ: configuration not given here. *: point of attachment. NMeF = CN[C@@H](Cc1ccccc1)C(=O)O; NMeN = CN[C@@H](CC(N)=O)C(=O)O; NMeV = CN[C@H](C(=O)O)C(C)C; ξNMeV = CNC(C(=O)O)C(C)C; Boc = CC(C)(C)OC(=O)*; ξNMeA = CNC(C)C(=O)O; ξV = CC(C)C(N)C(=O)O

Legend:
Test in all cases: NCI-60 cell line screen, 48 h
HOP-62 = test system: HOP-62
Malme-3M = test system: Malme-3M
SNB-19 = test system: SNB-19
ACHN = test system: ACHN
LOX IMVI = test system: LOX IMVI
HT-29 = test system: HT-29
NCI-H522 = test system: NCI-H522
PC-3 = test system: PC-3
UACC-257 = test system: UACC-257
UO-31 = test system: UO-31
A498 = test system: A498
SK-MEL-2 = test system: SK-MEL-2
OVCAR-8 = test system: OVCAR-8
MOLT-4 = test system: MOLT-4
IGROV-1 = test system: IGROV-1
RXF 393 = test system: RXF 393
SK-MEL-5 = test system: SK-MEL-5
SN12C = test system: SN12C
CCRF-CEM = test system: CCRF-CEM
Hs-578T = test system: Hs-578T

| Structure (SMILES) | GI50 (HOP-62) | GI50 (Malme-3M) | GI50 (SNB-19) | GI50 (ACHN) | GI50 (LOX IMVI) | GI50 (HT-29) | GI50 (NCI-H522) | GI50 (PC-3) | GI50 (UACC-257) | GI50 (UO-31) | GI50 (A498) | GI50 (SK-MEL-2) | GI50 (OVCAR-8) | GI50 (MOLT-4) | GI50 (IGROV-1) | GI50 (RXF 393) | GI50 (SK-MEL-5) | GI50 (SN12C) | GI50 (CCRF-CEM) | GI50 (Hs-578T) |
| --- | --- | --- | --- | --- | --- | --- | --- | --- | --- | --- | --- | --- | --- | --- | --- | --- | --- | --- | --- | --- |
| N#C/C=C1\C=CC(O)C(O)C1OC1OC(CO)C(O)C(O)C1O (stereo unspecified) | > 100 µM (inactive) | > 100 µM (inactive) | > 100 µM (inactive) | > 100 µM (inactive) | > 100 µM (inactive) | > 100 µM (inactive) | > 100 µM (inactive) | > 100 µM (inactive) | > 100 µM (inactive) | > 100 µM (inactive) | > 100 µM (inactive) | > 100 µM (inactive) | > 100 µM (inactive) | > 100 µM (inactive) | > 100 µM (inactive) | > 100 µM (inactive) | > 100 µM (inactive) | > 100 µM (inactive) | > 100 µM (inactive) | > 100 µM (inactive) |
| C[C@H]1[C@H](C)CC[C@]2(C(=O)OC3OC(CO)C(O)C(O)C3O)CC[C@]3(C)C(=CC[C@@H]4[C@@]5(C)C[C@H]6OC(=O)c7cc(O)c(O)c(O)c7-c7c(cc(O)c(O)c7O)C(=O)O[C@@H]6C(CO)(CO)[C@@H]5CC[C@]43C)[C@H]12 (stereo partly specified) | > 100 µM (inactive) | > 100 µM (inactive) | 43.7 µM (inactive) | > 100 µM (inactive) | 16.4 µM (inactive) | 24.1 µM (inactive) | 16.6 µM (inactive) | > 82.6 µM (inactive) | > 100 µM (inactive) | 58.1 µM (inactive) | > 100 µM (inactive) | > 100 µM (inactive) | 55.8 µM (inactive) | > 41.5 µM (inactive) | > 100 µM (inactive) | > 100 µM (inactive) | 72.9 µM (inactive) | 58.3 µM (inactive) | 24.5 µM (inactive) | > 100 µM (inactive) |
| CN1C/C(=C\c2ccc(Cl)cc2)C(=O)/C(=C/c2ccc(Cl)cc2)C1 | 2.68 µM (inactive) | 14.3 µM (inactive) | 1.25 µM (inactive) | 3.15 µM (inactive) | 0.237 µM (active) | 0.294 µM (active) | 1.97 µM (inactive) | 1.77 µM (inactive) | 0.443 µM (active) | 1.77 µM (inactive) | 1.55 µM (inactive) | > 88.9 µM (inactive) | 0.232 µM (active) | 0.326 µM (active) | 1.4 µM (inactive) | 0.834 µM (active) | 2.69 µM (inactive) | 0.771 µM (active) | 0.323 µM (active) | 2.65 µM (inactive) |
| Nc1ncnc2nc(N3CCN(CCO)CC3)[nH]c12 | > 100 µM (inactive) | > 100 µM (inactive) | > 100 µM (inactive) | > 100 µM (inactive) | > 100 µM (inactive) | > 100 µM (inactive) | > 100 µM (inactive) | > 100 µM (inactive) | > 100 µM (inactive) | > 100 µM (inactive) | > 100 µM (inactive) | > 100 µM (inactive) | > 100 µM (inactive) | 50.6 µM (inactive) | > 100 µM (inactive) | > 100 µM (inactive) | > 100 µM (inactive) | > 100 µM (inactive) | > 100 µM (inactive) | > 100 µM (inactive) |
| COC(=O)C(C)N(C)C(=O)[C@H](CC(N)=O)N(C)C(=O)[C@@H]1CCCN1C(=O)[C@H](C(C)C)N(C)C(=O)C(C(C)C)N(C)C(=O)[C@H](Cc1ccccc1)N(C)C(=O)C(NC(=O)OC(C)(C)C)C(C)C (stereo partly specified) (Boc-[ξV][NMeF][ξNMeV][NMeV]P[NMeN][ξNMeA]-OMe) | 11.5 µM (inactive) | 17.8 µM (inactive) | 19.7 µM (inactive) | > 50 µM (inactive) | 9.44 µM (inactive) | 18.3 µM (inactive) | 17.5 µM (inactive) | 16.1 µM (inactive) | 25.6 µM (inactive) | 37.8 µM (inactive) | 44.4 µM (inactive) | 9.1 µM (inactive) | 17.5 µM (inactive) | 8.95 µM (inactive) | 22.4 µM (inactive) | 12 µM (inactive) | 17.2 µM (inactive) | 26 µM (inactive) | 24 µM (inactive) | 10.8 µM (inactive) |
| CC1=CP(=O)(c2c(C(C)C)cc(C(C)C)cc2C(C)C)CCC1Cl (stereo unspecified) | 17 µM (inactive) | 13.9 µM (inactive) | 14.4 µM (inactive) | 15.9 µM (inactive) | 18.8 µM (inactive) | 16.4 µM (inactive) | 14.1 µM (inactive) | 13.4 µM (inactive) | 11.6 µM (inactive) | 13.9 µM (inactive) | 15.9 µM (inactive) | 16.1 µM (inactive) | 21.2 µM (inactive) | 6.7 µM (inactive) | 15.4 µM (inactive) | 14.7 µM (inactive) | 16.6 µM (inactive) | 17.7 µM (inactive) | 14.1 µM (inactive) | 27.5 µM (inactive) |
| O/N=C/C1c2ccccc2-c2ccccc21 | 17.9 µM (inactive) | 15.2 µM (inactive) | 18.4 µM (inactive) | 16.4 µM (inactive) | 23 µM (inactive) | 14.8 µM (inactive) | 16.9 µM (inactive) | 17.2 µM (inactive) | 17.5 µM (inactive) | 15.1 µM (inactive) | 17.5 µM (inactive) | 17.1 µM (inactive) | 19.6 µM (inactive) | 24 µM (inactive) |  | 19.5 µM (inactive) | 12.5 µM (inactive) | 16.4 µM (inactive) | 19.5 µM (inactive) | 18.7 µM (inactive) |
| NC1=NC(=O)[C@H](CSCc2ccccc2)N1C(=O)OCc1ccccc1 | > 100 µM (inactive) | > 100 µM (inactive) | > 100 µM (inactive) | > 100 µM (inactive) | > 100 µM (inactive) | > 100 µM (inactive) | > 100 µM (inactive) | > 100 µM (inactive) | > 100 µM (inactive) | > 100 µM (inactive) | > 100 µM (inactive) | > 100 µM (inactive) | > 100 µM (inactive) | > 100 µM (inactive) | > 100 µM (inactive) | > 100 µM (inactive) | > 100 µM (inactive) | > 100 µM (inactive) |  | > 100 µM (inactive) |
| N#Cc1cc(-c2nc3cc(F)ccc3s2)ccc1N | 15.3 µM (inactive) | > 79.1 µM (inactive) | 18.2 µM (inactive) | 1.36 µM (inactive) | > 100 µM (inactive) | 1.97 µM (inactive) | > 53.1 µM (inactive) | 24.7 µM (inactive) | > 100 µM (inactive) | 42 µM (inactive) | 3.39 µM (inactive) | 29.3 µM (inactive) | > 67.9 µM (inactive) | > 100 µM (inactive) | < 0.0112 µM (active) | 2.11 µM (inactive) |  | > 100 µM (inactive) | > 100 µM (inactive) | 15.8 µM (inactive) |
| CCCNC(=O)Nc1ccc2c(c1)Cc1cc(N(CCCl)CCCl)ccc1-2 | 81.5 µM (inactive) | 36 µM (inactive) | 19.2 µM (inactive) | 5.47 µM (inactive) | 12.2 µM (inactive) | 3.24 µM (inactive) | 17.6 µM (inactive) | 25.2 µM (inactive) | 41.7 µM (inactive) | 17.4 µM (inactive) | 10.6 µM (inactive) | 29.2 µM (inactive) | 26.9 µM (inactive) |  | 14.1 µM (inactive) | 15.5 µM (inactive) | 13.7 µM (inactive) | 33 µM (inactive) | 58.3 µM (inactive) | 25.6 µM (inactive) |
